Each compound was assayed against T1, MAGE-A11:PCF11 interaction (GST-MAGE-A11 and FAM-PCF11_4) (Homo sapiens, UniProt P43364) (assay: TR-FRET primary / single point screen at 15 µM). Conditions: single point TR-FRET screening of 797 quinoline compounds against MAGE-A11:PCF11.
T1 construct: GST-MAGE-A11 MHD (human MAGE-A11 MHD amino acid 218-429); made in house; host or cells: E. coli BL21(DE3)
T1 sequence (P43364 218-429): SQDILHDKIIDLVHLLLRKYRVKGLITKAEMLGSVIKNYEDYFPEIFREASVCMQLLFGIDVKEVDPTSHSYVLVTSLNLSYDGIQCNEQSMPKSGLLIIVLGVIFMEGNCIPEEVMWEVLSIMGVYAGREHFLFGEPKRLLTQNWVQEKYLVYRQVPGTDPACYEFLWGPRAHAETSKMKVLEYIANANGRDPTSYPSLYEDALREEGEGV
Format: binding
In short: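 TR-FRET 520/490 nm emission ratio was read after 90 min at room temperature. Wells held 5 nM GST-MAGE-A11, 5 nM Tb-anti-GST, 200 nM FAM-PCF11_4 and 15 µM compound in Tris pH 7.5 buffer with MgCl2, BSA and DTT. %Inhibition was scaled to DMSO and minus-MAGE-A11 controls.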

| SMILES | percent inhibition (TR-FRET) |
| --- | --- |
| Fc1ccc(CN(CCCCNc2ccnc3cc(Cl)ccc23)Cc2ccccc2)cc1F [SJ000361197] | 26.0931 |
| Fc1ccccc1CN(CCCCNc1ccnc2cc(Cl)ccc12)Cc1ccccc1 [SJ000361198] | 20.7772 |
| Fc1cccc(CN(CCCCNc2ccnc3cc(Cl)ccc23)Cc2ccccc2)c1 [SJ000361199] | 28.3389 |
| O=[N+]([O-])c1ccccc1CN(CCCCNc1ccnc2cc(Cl)ccc12)Cc1ccccc1 [SJ000361200] | 17.2064 |
| O=[N+]([O-])c1cccc(CN(CCCCNc2ccnc3cc(Cl)ccc23)Cc2ccccc2)c1 [SJ000361201] | 24.3707 |
| O=[N+]([O-])c1ccc(CN(CCCCNc2ccnc3cc(Cl)ccc23)Cc2ccccc2)cc1 [SJ000361202] | 15.2459 |
| O=C(O)c1ccccc1CN(CCCCNc1ccnc2cc(Cl)ccc12)Cc1ccccc1 [SJ000361203] | 4.099 |
| Clc1ccc2c(NCCCCN(Cc3ccccc3)Cc3cccc4ccccc34)ccnc2c1 [SJ000361204] | 26.4906 |
| Clc1ccc2c(NCCCCN(Cc3ccccc3)Cc3ccc4ccccc4c3)ccnc2c1 [SJ000361205] | 24.6356 |
| Cc1cccc(CN(CCCCNc2ccnc3cc(Cl)ccc23)Cc2ccccc2)c1 [SJ000361206] | 29.5379 |
| Clc1ccc(CN(CCCCNc2ccnc3cc(Cl)ccc23)Cc2ccccc2)c(Cl)c1 [SJ000361207] | 35.4339 |
| CCC(C)CN(CCCCNc1ccnc2cc(Cl)ccc12)Cc1ccccc1 (stereo not shown) [SJ000361208] | 35.3677 |
| Cc1ccc(C)c(CN(CCCCNc2ccnc3cc(Cl)ccc23)Cc2ccccc2)c1 [SJ000361209] | 32.6515 |
| COc1cccc(CN(CCCCNc2ccnc3cc(Cl)ccc23)Cc2ccccc2)c1 [SJ000361210] | 11.7175 |
| Clc1ccc2c(NCCCCN(CCc3ccccc3)Cc3ccccc3)ccnc2c1 [SJ000361211] | 23.3769 |
| CCCCCCN(CCCCNc1ccnc2cc(Cl)ccc12)Cc1ccccc1 [SJ000361212] | 23.5778 |

Now from value to compound:

| percent inhibition (TR-FRET) | SMILES |
| --- | --- |
| -68.0728 | CCCCCN(CCCCC)CC(=O)Nc1c2c(nc3ccccc13)CCC2 [SJ000487033] |
| 3.503 | COC(=O)CN1CCN(c2cc(C)nc3ccccc23)C(C)C1=O (stereo not shown) [SJ000516812] |
| -2.9894 | Clc1ccc2c(N3CCN(CCCN4CCN(c5ccnc6cc(Cl)ccc56)CC4)CC3)ccnc2c1 [SJ000518980] |
| 15.1059 | Cc1[nH]cnc1CN(CCCCNc1ccnc2cc(Cl)ccc12)Cc1ccccc1 [SJ000520428] |
| 23.5757 | COC(=O)CCCCCN(CCCCNc1ccnc2cc(Cl)ccc12)Cc1ccccc1 [SJ000520432] |
| 69.4381 | Clc1ccc2c(NCCCCN(Cc3ccccc3)Cc3ccc4[nH]ccc4c3)ccnc2c1 [SJ000520434] |
| 5.888 | Cn1ccnc1CN(CCCCNc1ccnc2cc(Cl)ccc12)Cc1ccccc1 [SJ000520435] |
| 21.6545 | Clc1ccc2c(NCCCCN(Cc3ccccc3)Cc3cccc4c3OCO4)ccnc2c1 [SJ000520436] |
| 13.1455 | COc1ccc(CN(CCCCNc2ccnc3cc(Cl)ccc23)Cc2ccccc2)cc1F [SJ000520438] |
| -14.3502 | Cn1cc(CN(CCCCNc2ccnc3cc(Cl)ccc23)Cc2ccccc2)c2ccccc21 [SJ000520440] |
| 14.5458 | COc1ccc(F)c(CN(CCCCNc2ccnc3cc(Cl)ccc23)Cc2ccccc2)c1 [SJ000520441] |
| 29.9089 | CCc1ccc(CN(CCCCNc2ccnc3cc(Cl)ccc23)Cc2ccccc2)cc1 [SJ000520443] |
| 31.8155 | COc1ccc(C(F)(F)F)cc1CN(CCCCNc1ccnc2cc(Cl)ccc12)Cc1ccccc1 [SJ000520444] |
| 33.9765 | Clc1ccc2c(NCCCCN(Cc3ccccc3)Cc3csc4ccccc34)ccnc2c1 [SJ000520446] |
| 26.6585 | COc1ccc(OC(F)(F)F)cc1CN(CCCCNc1ccnc2cc(Cl)ccc12)Cc1ccccc1 [SJ000520447] |
| -1.698 | Clc1ccc2c(NCCCCN(Cc3ccccc3)Cc3nccs3)ccnc2c1 [SJ000520448] |
| 42.3236 | Cc1ccc(F)cc1CN(CCCCNc1ccnc2cc(Cl)ccc12)Cc1ccccc1 [SJ000520449] |
| 39.8725 | FC(F)(F)Oc1ccc(CN(CCCCNc2ccnc3cc(Cl)ccc23)Cc2ccccc2)cc1 [SJ000520451] |
| 2.377 | Clc1ccc2c(NCCCCN(Cc3ccccc3)Cc3cccnc3Br)ccnc2c1 [SJ000520453] |

Same assay, conditions: single point TR-FRET screening of quinoline compounds against MAGE-A11:PCF11; 15 µM

| SMILES | percent inhibition (TR-FRET) |
| --- | --- |
| CCCN(CCC)CCCNc1ccnc2cc(C(F)(F)F)ccc12 [SJ000361250] | 15.6779 |
| CCCN(CCCNc1ccnc2cc(C(F)(F)F)ccc12)Cc1ccncc1 [SJ000361251] | 17.4864 |
| CCCN(CCCNc1ccnc2cc(C(F)(F)F)ccc12)Cc1ccccn1 [SJ000361252] | 15.1623 |
| CCCN(CCCNc1ccnc2cc(C(F)(F)F)ccc12)Cc1cccs1 [SJ000361253] | 19.5346 |
| CCCN(CCCNc1ccnc2cc(C(F)(F)F)ccc12)Cc1ccsc1 [SJ000361254] | 28.8755 |
| CCCN(CCCNc1ccnc2cc(C(F)(F)F)ccc12)Cc1ccc[nH]1 [SJ000361255] | 30.6641 |
| CCCN(CCCNc1ccnc2cc(C(F)(F)F)ccc12)Cc1ccccc1 [SJ000361256] | 28.8195 |
| CCCN(CCCNc1ccnc2cc(C(F)(F)F)ccc12)Cc1ccccc1O [SJ000361257] | 26.5044 |
| CCCN(CCCNc1ccnc2cc(C(F)(F)F)ccc12)Cc1ccc(C)s1 [SJ000361258] | 19.0825 |
| CCCN(CCCNc1ccnc2cc(C(F)(F)F)ccc12)Cc1ccccc1C(F)(F)F [SJ000361259] | 4.988 |
| CCCN(CCCNc1ccnc2cc(C(F)(F)F)ccc12)Cc1cccc(OC)c1O [SJ000361260] | 15.4935 |
| CCCN(CCCNc1ccnc2cc(C(F)(F)F)ccc12)Cc1ccc(C)o1 [SJ000361261] | 23.9069 |
| CCCN(CCCNc1ccnc2cc(C(F)(F)F)ccc12)Cc1c(F)cccc1OC [SJ000361262] | 29.228 |
| CCCN(CCCNc1ccnc2cc(C(F)(F)F)ccc12)Cc1cc(OC)ccc1O [SJ000361263] | 25.2582 |
| CCCN(CCCNc1ccnc2cc(C(F)(F)F)ccc12)Cc1c(C)cc(C)cc1C [SJ000361264] | 19.9321 |
| CCCN(CCCNc1ccnc2cc(C(F)(F)F)ccc12)Cc1ccco1 [SJ000361265] | 24.1057 |
| CCCN(CCCNc1ccnc2cc(C(F)(F)F)ccc12)CC1CC1 [SJ000361266] | 48.1534 |
| CCCN(CCCNc1ccnc2cc(C(F)(F)F)ccc12)Cc1ccoc1 [SJ000361267] | 28.5489 |

Continued, values first:

| percent inhibition (TR-FRET) | SMILES |
| --- | --- |
| 33.314 | CCCN(CCCNc1ccnc2cc(C(F)(F)F)ccc12)CC1CCCCC1 [SJ000361268] |
| 30.6641 | CCCN(CCCNc1ccnc2cc(C(F)(F)F)ccc12)CC(CC)CC [SJ000361269] |
| 5.623 | CCCN(CCCNc1ccnc2cc(C(F)(F)F)ccc12)Cc1ccc2c(c1)OCO2 [SJ000361270] |
| 30.9303 | CCCCCN(CCC)CCCNc1ccnc2cc(C(F)(F)F)ccc12 [SJ000361271] |
| 13.8395 | CCCN(CCCNc1ccnc2cc(C(F)(F)F)ccc12)Cc1ccc(F)c(F)c1 [SJ000361272] |
| 22.8956 | CCCN(CCCNc1ccnc2cc(C(F)(F)F)ccc12)Cc1ccc(OC)cc1 [SJ000361273] |
| 19.2187 | CCCN(CCCNc1ccnc2cc(C(F)(F)F)ccc12)Cc1ccccc1F [SJ000361274] |
| 17.1364 | COC(=O)CCCCCN(CCCNc1ccnc2cc(Cl)ccc12)Cc1ccccc1 [SJ000520429] |
| 66.4274 | Clc1ccc2c(NCCCN(Cc3ccccc3)Cc3ccc4[nH]ccc4c3)ccnc2c1 [SJ000520430] |
| 15.361 | Cn1ccnc1CN(CCCNc1ccnc2cc(Cl)ccc12)Cc1ccccc1 [SJ000520431] |
| 40.1907 | Clc1ccc2c(NCCCN(Cc3ccccc3)Cc3c[nH]c4ccccc34)ccnc2c1 [SJ000520433] |
| 23.6478 | COc1ccc(CN(CCCNc2ccnc3cc(Cl)ccc23)Cc2ccccc2)cc1F [SJ000520437] |
| -9.311 | Cn1cc(CN(CCCNc2ccnc3cc(Cl)ccc23)Cc2ccccc2)c2ccccc21 [SJ000520439] |
| 18.8867 | CCc1ccc(CN(CCCNc2ccnc3cc(Cl)ccc23)Cc2ccccc2)cc1 [SJ000520442] |
| 4.762 | COc1ccc(F)c(CN(CCCNc2ccnc3cc(Cl)ccc23)Cc2ccccc2)c1 [SJ000520445] |
| 23.1782 | COc1ccc(C(F)(F)F)cc1CN(CCCNc1ccnc2cc(Cl)ccc12)Cc1ccccc1 [SJ000520450] |
| 20.4443 | COc1ccc(OC(F)(F)F)cc1CN(CCCNc1ccnc2cc(Cl)ccc12)Cc1ccccc1 [SJ000520452] |

From publication PMC7529893, “Structural basis for substrate recognition and chemical inhibition of oncogenic MAGE ubiquitin ligases” (Nature Communications, 2020)
